Measurements reported in patent US6927228B2, “Biaromatic compound activators of PPARγ-type receptors” (Galderma Research & Development, S.N.C., priority 2000, dated 2005).
Marks after values point to notes of the source that are not given here.

What was measured:
PPARγ receptors [1] = target: T1, PPARγ receptors (Homo sapiens, UniProt P37231); experiment: PPARγ binding test, competition with tritiated BRL 49,653; design: made in house; host or cells: Sf9 insect cells (recombinant baculovirus); conditions: hydroxyapatite gel, receptor from Sf9 insect cells, read-out: Binding of PPAR-γ Kd
T1 sequence (P37231 1-505): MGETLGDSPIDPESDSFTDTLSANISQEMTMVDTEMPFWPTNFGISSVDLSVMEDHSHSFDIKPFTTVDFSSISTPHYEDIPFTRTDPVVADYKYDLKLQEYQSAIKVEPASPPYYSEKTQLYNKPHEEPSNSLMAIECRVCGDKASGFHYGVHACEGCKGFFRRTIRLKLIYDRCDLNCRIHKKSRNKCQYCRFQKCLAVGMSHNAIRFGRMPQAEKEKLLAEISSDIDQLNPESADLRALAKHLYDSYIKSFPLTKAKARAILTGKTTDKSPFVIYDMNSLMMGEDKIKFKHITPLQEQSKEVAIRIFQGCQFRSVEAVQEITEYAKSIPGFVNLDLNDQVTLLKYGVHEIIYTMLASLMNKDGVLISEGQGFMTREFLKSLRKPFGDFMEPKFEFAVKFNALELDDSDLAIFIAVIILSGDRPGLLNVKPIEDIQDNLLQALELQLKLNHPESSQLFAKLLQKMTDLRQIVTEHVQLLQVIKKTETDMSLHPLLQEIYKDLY
Description: The technique of adsorption on hydroxyapatite gel was used to separate the receptor-bound ligand from the free ligand. The human PPARγ receptor was prepared from Sf9 insect cells infected with a recombinant baculovirus. The results are expressed as a Kd value (nM) which represents the equilibrium dissociation constant obtained for each compound.
(§1) The agonist activity of the compounds according to the invention towards PPARγ receptors may be evaluated by binding tests and transactivation tests.

PPARγ receptors [2] = target: T1, PPARγ receptors; experiment: PPARγ transactivation test; type: cell-based; design: expressed in transfected cells; conditions: concentration of 1 μM, relative to SB 219994 = 100%
Description: as §1

PPARα receptors = target: T2, PPARα receptors (Homo sapiens, UniProt Q07869); experiment: PPARα transactivation test; type: cell-based; conditions: concentration of 1 μM, relative to Wy 14643 = 100%
T2 construct: expressed in transfected cells
T2 sequence (Q07869 1-468): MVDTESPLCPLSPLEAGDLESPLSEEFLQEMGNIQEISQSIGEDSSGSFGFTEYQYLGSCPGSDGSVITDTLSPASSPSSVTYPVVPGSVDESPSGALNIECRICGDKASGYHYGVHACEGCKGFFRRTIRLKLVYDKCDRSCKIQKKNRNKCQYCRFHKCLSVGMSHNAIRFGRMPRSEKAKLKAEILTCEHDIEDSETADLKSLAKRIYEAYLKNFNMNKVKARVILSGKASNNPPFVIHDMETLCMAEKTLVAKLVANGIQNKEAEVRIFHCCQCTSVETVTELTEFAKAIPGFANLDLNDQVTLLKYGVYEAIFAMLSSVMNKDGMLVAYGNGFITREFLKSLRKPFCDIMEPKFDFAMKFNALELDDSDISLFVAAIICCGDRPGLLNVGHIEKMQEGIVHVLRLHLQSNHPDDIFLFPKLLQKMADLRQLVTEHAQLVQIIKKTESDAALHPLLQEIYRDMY
Description: [Worded in the source for another target; this target is reported under the same test.] as §1

Kd (PPARγ receptors [1]) | activation at 1 µM (PPARγ receptors [2]) | activation at 1 µM (PPARα receptors) | % of activation of PPARα (PPARα receptors) | % of activation of PPARγ (PPARγ receptors [2]) | Structure (SMILES)
55 nM | 102% | 8.2% |  |  | CN(Cc1cccc(-c2ccc(CC3SC(=O)NC3=O)cc2)c1)C(=O)c1ccccc1 (stereo not shown) [Example 1, N-[4′-(2,4-Dioxothiazolidin-5-ylmethyl)biphenyl-3-ylmethyl]-N-methylbenzamide]
263 nM | 42.9% | 8.2% |  |  | CN(Cc1cccc(-c2ccc(CC3SC(=O)NC3=O)cc2)c1)c1ccccn1 (stereo not shown) [Example 2, 5-{3′-[(Methylpyrid-2-ylamino)methyl]biphenyl-4-ylmethyl}thiazolidine-2,4-dione]
800 nM | 22.1% | 0% |  |  | CN(Cc1cccc(-c2ccc(CC3SC(=O)NC3=O)cc2)c1)C(=O)Nc1ccccc1 (stereo not shown) [Example 10, 1-[4′-(2,4-Dioxothiazolidin-5-ylmethyl)biphenyl-3-ylmethyl]-1-methyl-3-phenylurea]
289 nM | 74.5% | 2.4% |  |  | CN(Cc1cccc(-c2ccc(CC3SC(=O)NC3=O)cc2)c1)C(=O)OC(C)(C)C (stereo not shown) [Example 11, tert-Butyl [4′-(2,4-dioxothiazolidin-5-ylmethyl)biphenyl-3-ylmethyl]methylcarbamate]
7 nM | 60.4% | 0% |  |  | CCCCCCCCC(=O)N(C)Cc1cccc(-c2ccc(CC3SC(=O)NC3=O)cc2)c1 (stereo not shown) [Example 12, N-[4′[2,4-dioxothiazolidin-5-ylmethyl)biphenyl-3-ylmethyl]-N-methylnonanamide]
24 nM | 70.2% | 0% |  |  | CCO[C@@H](Cc1ccc(-c2cccc(CN(C)C(=O)c3ccccc3)c2)cc1)C(=O)O [Example 13, (S)-2-Ethoxy-3-(3′-{[methyl-(1-phenylmethanoyl)-amino]methyl}biphenyl-4-yl)propionic acid]
190 nM | 90% | 14.9% |  |  | CN(Cc1cccc(-c2ccc(CC3SC(=O)NC3=O)cc2)c1)C(=O)OCC1c2ccccc2-c2ccccc21 (stereo not shown) [Example 21, 9H-Fluoren-9-ylmethyl [4′-(2,4-dioxothiazolidin-5-ylmethyl)biphenyl-3-ylmethyl]methylcarbamate]
76.6 nM | 95.3% | 7.5% |  |  | CN(Cc1cccc(-c2ccc(CC3SC(=O)NC3=O)cc2)c1)C(=O)C(C)(C)C (stereo not shown) [Example 22, N-[4′-(2,4-Dioxothiazolidin-5-ylmethyl)biphenyl-3-ylmethyl]-2,2,N-trimethylpropionamide]
72.3 nM | 95% | 8.7% |  |  | CN(Cc1cccc(-c2ccc(CC3SC(=O)NC3=O)cc2)c1)C(=O)CCc1ccccc1 (stereo not shown) [Example 24, N-[4′-(2,4-Dioxothiazolidin-5-ylmethyl)biphenyl-3-ylmethyl]-N-methyl-3-phenylpropionamide]
 | 88.6% | 2.1% |  |  | CCCN(Cc1cccc(-c2ccc(C=C3SC(=O)NC3=O)cc2)c1)C(=O)c1ccccc1 [Example 26, N-[4′-(2,4-Dioxothiazolidin-5-ylidenemethyl)-biphenyl-3-ylmethyl]-N-propylbenzamide]
 | 79.8% | 1.1% |  |  | CCOc1ccc(C(=O)N(C)Cc2cccc(-c3ccc(CC4SC(=O)NC4=O)cc3)c2)cc1OCC (stereo not shown) [Example 28, N-[4′-(2,4-Dioxothiazolidin-5-ylmethyl)biphenyl-3-ylmethyl]-3,4-diethoxy-N-methylbenzamide]
 | 80.3% | 8.9% |  |  | CN(Cc1ccccc1)C(=O)c1cccc(-c2ccc(CC3SC(=O)NC3=O)cc2)c1 (stereo not shown) [Example 30, N-Benzyl-N-methyl-4′-(2,4-dioxothiazolidin-5-ylmethyl)biphenyl-3-carboxamide]
 | 74.9% | 0% |  |  | CCCCCCCCCC(=O)N(C)Cc1cccc(-c2ccc(CC3SC(=O)NC3=O)cc2)c1 (stereo not shown) [Example 32, N-[4′-(2,4-Dioxothiazolidin-5-ylmethyl)biphenyl-3-ylmethyl]-N-methyldecanamide]
2 nM | 102% | 17.6% |  |  | CCCCCCCC(=O)N(C)Cc1cccc(-c2ccc(CC3SC(=O)NC3=O)cc2)c1 (stereo not shown) [Example 34, N-[4′-(2,4-Dioxothiazolidin-5-ylmethyl)biphenyl-3-ylmethyl]-N-methyloctanamide]
 | 56% | 11% |  |  | CCCCCCC(=O)N(C)Cc1cccc(-c2ccc(CC3SC(=O)NC3=O)cc2)c1 (stereo not shown) [Example 35, N-[4′-(2,4-Dioxothiazolidin-5-ylmethyl)biphenyl-3-ylmethyl]-N-methylheptanamide]
 |  |  | 100* % |  | Cc1cccc(Nc2cc(Cl)nc(SCC(=O)O)n2)c1C [Reference 1: Wy 14643, reference compound]
0.5 nM |  |  |  | 100% | CN(CCOc1ccc(C[C@H](OCC(F)(F)F)C(=O)O)cc1)c1nc2ccccc2o1 [Reference 2: SB 219994, reference compound]
